Data taken from ChEMBL document CHEMBL1147781, “Design, synthesis and in vitro antimalarial activity of an acylhydrazone library” (Bioorg Med Chem Lett, 2006).

Each compound was assayed on Plasmodium falciparum (assay: Growth inhibition of chloroquine-resistant Plasmodium falciparum FcB1 at 1 uM).
Format: functional
In the case of `O=C(N/N=C/c1cc(Br)ccc1O)c1cccs1`, the inhibition at 1 µM is reported as 38%.
With `COc1ccc(C(=O)N/N=C/c2cc(Br)ccc2O)cc1` the inhibition at 1 µM was 29%.
`CC(=O)N/N=C/c1cc(C(C)(C)C)ccc1O` gave an inhibition at 1 µM of 32%.
`Cc1ccc(O)c(/C=N/NC(=O)c2ccccc2)c1` showed an inhibition at 1 µM of 49%.
`O=C(N/N=C/c1ccccc1O)c1ccco1` gave an inhibition at 1 µM of 21%.
In the case of `COc1ccc(C(=O)N/N=C/c2cc(C)ccc2O)cc1`, the inhibition at 1 µM is reported as 28%.
`O=C(N/N=C/c1cc([N+](=O)[O-])ccc1O)c1ccco1` was tested, and the inhibition at 1 µM was 16%.
`O=C(N/N=C/c1cc([N+](=O)[O-])ccc1O)c1ccncc1` showed an inhibition at 1 µM of 15%.
Compound `O=C(N/N=C/c1cc(Br)ccc1O)c1ccncc1` has an inhibition at 1 µM of 29%.
For `COc1ccc(O)c(/C=N/NC(C)=O)c1`, the inhibition at 1 µM was 3%.
Compound `COc1ccc(O)c(/C=N/NC(=O)c2ccc(C(C)(C)C)cc2)c1` has an inhibition at 1 µM of 47%.
With `O=C(N/N=C/c1cc([N+](=O)[O-])ccc1O)c1cccs1` the inhibition at 1 µM was 21%.
For `CC(C)(C)c1ccc(O)c(/C=N/NC(=O)c2ccc(O)cc2)c1`, the inhibition at 1 µM was 31%.
Compound `O=C(N/N=C/c1cc([N+](=O)[O-])ccc1O)c1cccnc1` has an inhibition at 1 µM of 19%.
`COc1ccc(O)c(/C=N/NC(=O)c2ccc([N+](=O)[O-])cc2)c1` was tested, and the inhibition at 1 µM was 14%.
For `O=C(N/N=C/c1cc(Br)ccc1O)c1ccc(O)cc1`, the inhibition at 1 µM was 10%.
Compound `CC(=O)N/N=C/c1cc([N+](=O)[O-])ccc1O` has an inhibition at 1 µM of 22%.
For `COc1ccc(O)c(/C=N/NC(=O)c2ccc(Cl)cc2)c1`, the inhibition at 1 µM was 24%.
With `CC(C)(C)c1ccc(O)c(/C=N/NC(=O)c2cccnc2)c1` the inhibition at 1 µM was 32%.
With `Cc1ccc(O)c(/C=N/NC(=O)c2ccncc2)c1` the inhibition at 1 µM was 8%.
In the case of `Cc1ccc(O)c(/C=N/NC(=O)c2cccnc2)c1`, the inhibition at 1 µM is reported as 33%.
Work on `O=C(N/N=C/c1cc(Br)ccc1O)c1ccc(Cl)cc1` yielded an inhibition at 1 µM of 36%.
With `Cc1ccc(O)c(/C=N/NC(=O)c2cccs2)c1` the inhibition at 1 µM was 23%.
For `CC(=O)N/N=C/c1cc(C)ccc1O`, the inhibition at 1 µM was 32%.
For `CC(=O)N/N=C/c1cc(Br)ccc1O`, the inhibition at 1 µM was 17%.
With `CC(C)(C)c1ccc(C(=O)N/N=C/c2cc([N+](=O)[O-])ccc2O)cc1` the inhibition at 1 µM was 36%.
With `COc1ccc(C(=O)N/N=C/c2cc([N+](=O)[O-])ccc2O)cc1` the inhibition at 1 µM was 26%.
In the case of `Cc1ccc(O)c(/C=N/NC(=O)c2ccc(O)cc2)c1`, the inhibition at 1 µM is reported as 24%.
Compound `O=C(N/N=C/c1cc(Br)ccc1O)c1cccnc1` has an inhibition at 1 µM of 21%.
For `O=C(N/N=C/c1cc([N+](=O)[O-])ccc1O)c1ccc([N+](=O)[O-])cc1`, the inhibition at 1 µM was 31%.
Compound `Cc1ccc(O)c(/C=N/NC(=O)c2ccco2)c1` has an inhibition at 1 µM of 37%.
`Cc1ccc(O)c(/C=N/NC(=O)Cc2ccccc2)c1` gave an inhibition at 1 µM of 19%.
`Cc1ccc(O)c(/C=N/NC(=O)c2ccc([N+](=O)[O-])cc2)c1` was tested, and the inhibition at 1 µM was 46%.
For `CC(C)(C)c1ccc(O)c(/C=N/NC(=O)c2ccncc2)c1`, the inhibition at 1 µM was 40%.
`O=C(N/N=C/c1cc([N+](=O)[O-])ccc1O)c1ccccc1` was tested, and the inhibition at 1 µM was 21%.
Compound `CC(C)(C)c1ccc(C(=O)N/N=C/c2cc(C(C)(C)C)ccc2O)cc1` has an inhibition at 1 µM of 48%.
With `O=C(Cc1ccccc1)N/N=C/c1cc([N+](=O)[O-])ccc1O` the inhibition at 1 µM was 0%.
`O=C(Cc1ccccc1)N/N=C/c1cc(Br)ccc1O` gave an inhibition at 1 µM of 33%.
For `O=C(N/N=C/c1cc([N+](=O)[O-])ccc1O)c1ccc(O)cc1`, the inhibition at 1 µM was 4%.
`CC(C)(C)c1ccc(O)c(/C=N/NC(=O)c2ccco2)c1` was tested, and the inhibition at 1 µM was 14%.
`O=C(N/N=C/c1cc([N+](=O)[O-])ccc1O)c1ccc(Cl)cc1` showed an inhibition at 1 µM of 31%.
`COc1ccc(C(=O)N/N=C/c2cc(OC)ccc2O)cc1` showed an inhibition at 1 µM of 18%.
In the case of `COc1ccc(O)c(/C=N/NC(=O)c2ccc(O)cc2)c1`, the inhibition at 1 µM is reported as 20%.
Compound `CC(C)(C)c1ccc(O)c(/C=N/NC(=O)Cc2ccccc2)c1` has an inhibition at 1 µM of 14%.
`O=C(N/N=C/c1cc(Br)ccc1O)c1ccco1` was tested, and the inhibition at 1 µM was 35%.
Work on `O=C(N/N=C/c1cc(Br)ccc1O)c1ccccc1` yielded an inhibition at 1 µM of 47%.
`O=C(N/N=C/c1cc(Br)ccc1O)c1ccc([N+](=O)[O-])cc1` showed an inhibition at 1 µM of 17%.
